The assay addresses URAT-1 transporter (Homo sapiens (Human), UniProt Q96S37). Kind of assay: URAT-1 inhibitor activity: [14C]-uric acid uptake in CHO-URAT1(L)GFP#8 (CHO#8) cells, scintillation proximity. The assay is classed as cell-based. To be noted: inhibition of [14C]-uric acid (30 nM) uptake into CHO#8 cells; compound 0 to 10 μM; 4 parameter logistic fit. Put shortly:
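CHO cells stably expressing human URAT1 long isoform–eGFP fusion, pre-incubated 1 h in chloride-containing buffer pH 7.4, then given 30 nM [14C]-uric acid with compound (0–10 μM, 0.25% DMSO) in chloride-free gluconate buffer pH 7.4. Uptake measured by scintillation proximity on Cytostar plates.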

Chain of URAT-1 transporter (Q96S37 other isoform, or with tags, fused parts or gaps): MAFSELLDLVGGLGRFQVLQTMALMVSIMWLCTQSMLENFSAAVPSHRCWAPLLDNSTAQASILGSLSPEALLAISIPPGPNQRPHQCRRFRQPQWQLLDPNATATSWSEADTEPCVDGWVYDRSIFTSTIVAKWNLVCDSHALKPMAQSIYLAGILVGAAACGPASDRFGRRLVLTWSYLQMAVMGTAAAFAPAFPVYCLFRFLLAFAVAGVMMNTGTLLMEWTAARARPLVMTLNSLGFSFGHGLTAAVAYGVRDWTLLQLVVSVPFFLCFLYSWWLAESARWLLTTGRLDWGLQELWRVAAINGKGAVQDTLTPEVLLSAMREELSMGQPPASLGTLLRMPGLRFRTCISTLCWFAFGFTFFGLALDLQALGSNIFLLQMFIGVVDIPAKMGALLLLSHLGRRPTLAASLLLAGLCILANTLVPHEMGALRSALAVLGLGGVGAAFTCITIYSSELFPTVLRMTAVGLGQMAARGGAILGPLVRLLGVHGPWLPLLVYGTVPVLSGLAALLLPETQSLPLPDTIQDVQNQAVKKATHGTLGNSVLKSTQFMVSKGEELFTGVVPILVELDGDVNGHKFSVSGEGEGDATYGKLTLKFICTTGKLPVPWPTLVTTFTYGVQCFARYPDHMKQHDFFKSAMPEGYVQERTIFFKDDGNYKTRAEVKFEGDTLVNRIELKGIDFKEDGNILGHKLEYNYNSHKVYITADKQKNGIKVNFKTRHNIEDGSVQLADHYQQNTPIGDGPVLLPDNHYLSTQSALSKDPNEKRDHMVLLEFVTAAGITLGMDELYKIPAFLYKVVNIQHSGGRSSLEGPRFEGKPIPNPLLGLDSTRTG

As to `COc1cc(Cl)ccc1Oc1ccc(S(=O)(=O)Nc2cccnn2)cc1Cl` [Example 81, 3-chloro-4-(4-chloro-2-methoxyphenoxy)-N-(pyridazin-3-yl)benzenesulfonamide], the IC50 was above 10000 nM.
The value for `O=S(=O)(Nc1ncccn1)c1cc(Cl)c(Oc2ccc(Cl)cc2OC(F)F)cc1F` [Example 83, 5-chloro-4-[4-chloro-2-(difluoromethoxy)phenoxy]-2-fluoro-N-(pyrimidin-2-yl)benzenesulfonamide] was above 5970 nM; that for `O=S(=O)(Nc1cccnn1)c1ccc(Oc2ccc(Cl)cc2OC(F)F)c(Cl)c1` [Example 84, 3-chloro-4-[4-chloro-2-(difluoromethoxy)phenoxy]-N-(pyridazin-3-yl)benzenesulfonamide] was above 8870 nM.
`O=S(=O)(Nc1cccnn1)c1cc(Cl)c(Oc2ccc(Cl)cc2OC(F)F)cc1F` [Example 85, 5-chloro-4-[4-chloro-2-(difluoromethoxy)phenoxy]-2-fluoro-N-(pyridazin-3-yl)benzenesulfonamide]: the IC50 is above 10000 nM.
In the case of `N#Cc1cc(S(=O)(=O)Nc2cccnn2)ccc1Oc1ccc(Cl)cc1OC(F)F` [Example 86, 4-[4-chloro-2-(difluoromethoxy)phenoxy]-3-cyano-N-(pyridazin-3-yl)benzenesulfonamide], the IC50 was above 5330 nM.
`N#Cc1ccc(Oc2ccc(S(=O)(=O)Nc3ccncn3)cc2C#N)cc1Cl` [Example 87, 4-(3-chloro-4-cyanophenoxy)-3-cyano-N-(pyrimidin-4-yl)benzenesulfonamide] gave an IC50 above 7670 nM.
Regarding `N#Cc1ccc(Oc2ccc(S(=O)(=O)Nc3cccnn3)cc2C#N)cc1F` [Example 88, 3-cyano-4-(4-cyano-3-fluorophenoxy)-N-(pyridazin-3-yl)benzenesulfonamide], the IC50 stood at 429 nM.
The figure for `N#Cc1ccc(Oc2ccc(S(=O)(=O)Nc3ccccn3)cc2C#N)cc1Cl` [Example 89, 4-(3-chloro-4-cyanophenoxy)-3-cyano-N-(pyridin-2-yl)benzenesulfonamide] is 105 nM; for `N#Cc1ccc(Oc2ccc(S(=O)(=O)Nc3ncccn3)cc2C#N)cc1Cl` [Example 90, 4-(3-chloro-4-cyanophenoxy)-3-cyano-N-(pyrimidin-2-yl)benzenesulfonamide] it is above 3580 nM; for `N#Cc1ccc(Oc2ccc(S(=O)(=O)Nc3ncc(F)cn3)cc2C#N)cc1Cl` [Example 91, 4-(3-chloro-4-cyanophenoxy)-3-cyano-N-(5-fluoropyrimidin-2-yl)benzenesulfonamide] it is 1950 nM.
The value for `N#Cc1ccc(Oc2ccc(S(=O)(=O)Nc3cccnc3)cc2C#N)cc1Cl` [Example 92, 4-(3-chloro-4-cyanophenoxy)-3-cyano-N-(pyridin-3-yl)benzenesulfonamide] was 414 nM; that for `N#Cc1ccc(Oc2ccc(S(=O)(=O)Nc3cnccn3)cc2C#N)cc1Cl` [Example 93, 4-(3-chloro-4-cyanophenoxy)-3-cyano-N-(pyrazin-2-yl)benzenesulfonamide] was 2980 nM.
The figure for `N#Cc1ccc(Oc2ccc(S(=O)(=O)Nc3ccnnc3)cc2C#N)cc1Cl` [Example 94, 4-(3-chloro-4-cyanophenoxy)-3-cyano-N-(pyridazin-4-yl)benzenesulfonamide] is above 10000 nM; for `N#Cc1ccc(Oc2cc(F)c(S(=O)(=O)Nc3ccc(F)cn3)cc2F)cc1F` [Example 95, 4-(4-cyano-3-fluorophenoxy)-2,5-difluoro-N-(5-fluoropyridin-2-yl)benzenesulfonamide] it is above 10000 nM.
The compound `N#Cc1ccc(Oc2ccc(S(=O)(=O)Nc3cncnc3)cc2C#N)cc1Cl` [Example 96, 4-(3-chloro-4-cyanophenoxy)-3-cyano-N-(pyrimidin-5-yl)benzenesulfonamide] yielded an IC50 above 10000 nM.
`N#Cc1ccc(Oc2ccc(S(=O)(=O)Nc3ccc(F)cn3)cc2F)cc1F` [Example 97, 4-(4-cyano-3-fluorophenoxy)-3-fluoro-N-(5-fluoropyridin-2-yl)benzenesulfonamide]: the IC50 is above 1670 nM.
The figure for `N#Cc1ccc(Oc2ccc(S(=O)(=O)Nc3cccnn3)cc2C#N)cc1Cl` [Example 98, 4-(3-chloro-4-cyanophenoxy)-3-cyano-N-(pyridazin-3-yl)benzenesulfonamide] is 3870 nM; for `N#Cc1ccc(Oc2ccc(S(=O)(=O)Nc3ccc(F)cn3)c(F)c2)cc1F` [Example 99, 4-(4-cyano-3-fluorophenoxy)-2-fluoro-N-(5-fluoropyridin-2-yl)benzenesulfonamide] it is 29 nM; for `N#Cc1ccc(Oc2ccc(S(=O)(=O)Nc3ccncc3)cc2C#N)cc1Cl` [Example 100, 4-(3-chloro-4-cyanophenoxy)-3-cyano-N-(pyridin-4-yl)benzenesulfonamide] it is above 10000 nM.
The value for `Cc1cccnc1NS(=O)(=O)c1ccc(Oc2ccc(C#N)c(Cl)c2)c(C#N)c1` [Example 101, 4-(3-chloro-4-cyanophenoxy)-3-cyano-N-(3-methylpyridin-2-yl)benzenesulfonamide] was 594 nM; that for `COc1cccnc1NS(=O)(=O)c1ccc(Oc2ccc(C#N)c(Cl)c2)c(C#N)c1` [Example 102, 4-(3-chloro-4-cyanophenoxy)-3-cyano-N-(3-methoxypyridin-2-yl)benzenesulfonamide] was 3130 nM.
`N#Cc1ccc(Oc2ccc(S(=O)(=O)Nc3ncccc3F)cc2C#N)cc1Cl` [Example 103, 4-(3-chloro-4-cyanophenoxy)-3-cyano-N-(3-fluoropyridin-2-yl)benzenesulfonamide] yielded an IC50 of 145 nM.
The figure for `N#Cc1ccc(Oc2ccc(S(=O)(=O)Nc3cc(F)ccn3)cc2C#N)cc1Cl` [Example 104, 4-(3-chloro-4-cyanophenoxy)-3-cyano-N-(4-fluoropyridin-2-yl)benzenesulfonamide] is 15 nM; for `Cc1cc(Oc2ccc(S(=O)(=O)Nc3ccc(F)cn3)cc2C#N)cc(C(C)C)c1` [Example 105, 3-cyano-N-(5-fluoropyridin-2-yl)-4-[3-methyl-5-(propan-2-yl)phenoxy]benzenesulfonamide] it is above 10000 nM; for `COc1ccc(Cl)cc1Oc1ccc(S(=O)(=O)Nc2ccc(F)cn2)cc1C#N` [Example 106, 4-(5-chloro-2-methoxyphenoxy)-3-cyano-N-(5-fluoropyridin-2-yl)benzenesulfonamide] it is above 10000 nM.
The figure for `N#Cc1cc(S(=O)(=O)Nc2ccc(F)cn2)ccc1Oc1cc(Cl)c(F)cc1Cl` [Example 107, 3-cyano-4-(2,5-dichloro-4-fluorophenoxy)-N-(5-fluoropyridin-2-yl)benzenesulfonamide] is 58 nM; for `Cc1ccc(F)c(Oc2ccc(S(=O)(=O)Nc3ccc(F)cn3)cc2C#N)c1Cl` [Example 108, 4-(2-chloro-6-fluoro-3-methylphenoxy)-3-cyano-N-(5-fluoropyridin-2-yl)benzenesulfonamide] it is 98 nM; for `Cc1cc(Oc2ccc(S(=O)(=O)Nc3ccc(F)cn3)cc2C#N)c(Cl)cc1Cl` [Example 109, 3-cyano-4-(2,4-dichloro-5-methylphenoxy)-N-(5-fluoropyridin-2-yl)benzenesulfonamide] it is 892 nM.
For the compound `CCOc1cc(Cl)ccc1Oc1ccc(S(=O)(=O)Nc2ccc(F)cn2)cc1C#N` [Example 110, 4-(4-chloro-2-ethoxyphenoxy)-3-cyano-N-(5-fluoropyridin-2-yl)benzenesulfonamide], the IC50 amounted to 123 nM.
Regarding `COc1cccc(F)c1Oc1ccc(S(=O)(=O)Nc2ccc(F)cn2)cc1C#N` [Example 111, 3-cyano-4-(2-fluoro-6-methoxyphenoxy)-N-(5-fluoropyridin-2-yl)benzenesulfonamide], it took 74 nM to reach half-maximal inhibition (IC50).
The value for `COc1c(F)ccc(Oc2ccc(S(=O)(=O)Nc3ccc(F)cn3)cc2C#N)c1Cl` [Example 112, 4-(2-chloro-4-fluoro-3-methoxyphenoxy)-3-cyano-N-(5-fluoropyridin-2-yl)benzenesulfonamide] was 177 nM.
The value for `CCN(CC)c1cccc(Oc2ccc(S(=O)(=O)Nc3ccc(F)cn3)cc2C#N)c1` [Example 113, 3-cyano-4-[3-(diethylamino)phenoxy]-N-(5-fluoropyridin-2-yl)benzenesulfonamide] was above 10000 nM; that for `COc1cccc(Cl)c1Oc1ccc(S(=O)(=O)Nc2ccc(F)cn2)cc1C#N` [Example 114, 4-(2-chloro-6-methoxyphenoxy)-3-cyano-N-(5-fluoropyridin-2-yl)benzenesulfonamide] was 69 nM.
In turn, `COc1cccc(C)c1Oc1ccc(S(=O)(=O)Nc2ccc(F)cn2)cc1C#N` [Example 115, 3-cyano-N-(5-fluoropyridin-2-yl)-4-(2-methoxy-6-methylphenoxy)benzenesulfonamide] showed an IC50 of 24 nM.
The figure for `CCOc1ccc(Oc2ccc(S(=O)(=O)Nc3ccc(F)cn3)cc2C#N)cc1Cl` [Example 116, 4-(3-chloro-4-ethoxyphenoxy)-3-cyano-N-(5-fluoropyridin-2-yl)benzenesulfonamide] is above 10000 nM; for `CC(C)c1ncc(Oc2ccc(S(=O)(=O)Nc3ccc(F)cn3)cc2C#N)cc1Cl` [Example 117, 4-{[5-chloro-6-(propan-2-yl)pyridin-3-yl]oxy}-3-cyano-N-(5-fluoropyridin-2-yl)benzenesulfonamide] it is above 10000 nM.
The figure for `N#Cc1cc(S(=O)(=O)Nc2ccc(F)cn2)ccc1Oc1cccc(C2CC2)c1` [Example 118, 3-cyano-4-(3-cyclopropylphenoxy)-N-(5-fluoropyridin-2-yl)benzenesulfonamide] is above 10000 nM.
The value for `Cc1ccc(F)c(Oc2ccc(S(=O)(=O)Nc3ccc(F)cn3)cc2C#N)c1F` [Example 119, 3-cyano-4-(2,6-difluoro-3-methylphenoxy)-N-(5-fluoropyridin-2-yl)benzenesulfonamide] was 90 nM.
Compound `COc1ccc(F)cc1Oc1ccc(S(=O)(=O)Nc2ccc(F)cn2)cc1C#N` [Example 120, 3-cyano-4-(5-fluoro-2-methoxyphenoxy)-N-(5-fluoropyridin-2-yl)benzenesulfonamide] displayed an IC50 above 10000 nM.
